Earlier results, collected in US20240009325A1 (PriZm, LLC, priority 2022, published 2024).
Entries after “also recorded” stand apart in the source; their conditions may differ.

Columns and labels:
[1] = test system: mice deficient in MCT8; details: cited from earlier work; for cell entry in absence of MCT8: Mct8 deficient mice
[2] = test system: MCT8 deficient children; details: cited from earlier work; for high blood / serum T3 / neuropsychomotor deficit / neurological symptoms: MCT8 deficient patients
[3] = test system: animal models; details: mice not neurologically affected; cited from earlier work
[4] = test system: D1; details: cited from earlier work

Compound | suppressive effect on TSH ([1]; MCT8 deficient vs normal mice) | cell entry in absence of MCT8 [1] | hypermetabolism and nutrition ([2]; 4 MCT8 deficient children, compassionate basis) | high blood / serum T3 [2] | neuropsychomotor deficit / neurological symptoms [2] | peripheral and central abnormalities [3] | D1 [4] | T4 serum levels ([2]; clinical trial, Groeneweg et al. 2019)
O=C(O)CCc1cc(I)c(Oc2ccc(O)cc2)c(I)c1 [DITPA, 3,5-diiodothyropropionic acid] | equal suppressive effect | enter cells independent of MCT8 | ameliorating | reduction and normalization; also recorded: reduced | not the neuropsychomotor deficit; also recorded: no evidence for improvement | able to restore some |  | 
Cc1cc(OCC(=O)O)cc(C)c1Cc1ccc(O)c(C(C)C)c1 [Sobetirome] |  |  |  |  |  | able to restore some |  | 
O=C(O)Cc1cc(I)c(Oc2cc(I)c(O)c(I)c2)c(I)c1 [TETRAC] |  |  |  |  |  | able to restore some |  | 
O=C(O)Cc1cc(I)c(Oc2ccc(O)c(I)c2)c(I)c1 [TRIAC, triiodothyroacetic acid] |  | enter cells independent of MCT8 |  | reduced | no evidence for improvement | able to restore some | increases | significantly reduce
